How the values were obtained:
NR4A1 [1] = target: NR4A1 (Homo sapiens, UniProt P22736); test: E3 ligase-mediated NR4A1 degradation in transfected HEK293T cells (immunoblotting); assay type: cell-based; details: HEK293T transfected with NR4A1, with or without CRBN or VHL; 3 μM, 6 hrs
Procedure: FIG. 4A. Efficiency of NR4A1-Ps in protein degradation using 3 examples of NR4A1-Ps based on CRBN (NR-C91, 92, 93) and 4 based on VHL (NR-V03, 04, 07, 50), with NR-V04 showing the best efficacy in NR4A1 degradation. FIG. 4B. NR4A1 degradation is mediated by targeted E3 ligases. HEK293T cells were transfected with NR4A1, with or without overexpression of CRBN or VHL. 36 hrs after transfection, cells were treated with 3 μM of NR-C91 or NR-V04 for 6 hrs for immunoblotting.
(§1) Developing NR4A1-Ps. Due to the diverse function of NR4A1 in different cancer types, both agonistic and antagonistic ligands of NR4A1 are of interest in development (25). […] 4 cytosporone-B-based and 10 celastrol-based NR4A1-Ps using polyethylene glycol (PEG) linkers of various length have already been synthesized (FIG. 3 showing several examples).

NR4A1 [2] = target: T1, NR4A1 (Mus musculus, UniProt P12813); test: NR4A1 degradation in MC38 tumors of treated mice (tumor lysate immunoblotting); assay type: in vivo; details: MC38-tumor bearing mice, 1.8 mg/kg twice weekly for 3 weeks
T1 construct: from tissue; host or cells: MC38 tumors from treated tumor-bearing mice (tumor lysates)
Text: Tumor lysates were used for immunoblotting.
as §1

T47D cells = test: MTS viability assay, T47D cells; assay type: cell-based; details: relative to celastrol or NR-V04-NT
Text: (§2) NR4A1-Ps selectively kill breast cancer cells. Since NR-V04 is very efficient in NR4A1 degradation, a negative control, NR-V04-NT, was synthesized.

MCF10A = test: MTS viability assay, MCF10A normal breast epithelial cells; assay type: cell-based, human; details: relative to celastrol
Text: as §2

B16F10 melanoma = B16F10 melanoma model in NSG mice; assay type: in vivo, mouse; details: 1.8 mg/kg twice weekly for 3 weeks
Text: FIG. 10A-10C. […] Tumor growth were monitored via palpation. N=7 mice/group. FIG. 10A and FIG. 10B are the same experiment, but FIG. 10B includes only control vehicle and NR-V04 treated groups in FIG. 10B.

human T cells from PBMC = test: T cells from human PBMC of cancer patients, CD3/CD28 co-stimulated, flow cytometry; assay type: cell-based; details: 500 nM or 1 uM, two days
Procedure: T cells were purified from human PBMC from cancer patients and co-stimulated with anti-CD3/CD28 dynabeads for 3 days, following with DMSO, 500 nM or 1 uM of NR-V04 treatment for two days. FIG. 14A-14B, different sub-population of T cell numbers were quantitated via flow cytometry (FIG. 14A), with Treg panel separated (FIG. 14B).
In agreement with the in vivo models, we also activated all human T cells from PBMC of cancer patients, following with the treatment of various concentrations of NR-V04.

CD8+ T cells = test: CD8 T cell activation in B16F10 tumor bearing mice, flow cytometry; assay type: in vivo, mouse; details: 1.8 mg/kg, one week (two doses)
Procedure: B16F10 tumor bearing mice were treated with control vehicle or 1.8 mg/kg of NR-V04 for one week (two doses). CD8 T cells were analyzed for activation from tumors, spleen and blood. FIG. 15A. CD44+CD62L+(central memory, CM) and FIG. 15B. CD44+CD62L− (effector memory, EM) of CD8+ T cells were quantitated using flow cytometry.
We also determined the impact of NR-V04 on exhaustion and activation of CD8^+ T cells.

OT-1 CD8 T cells = test: OVA peptide-induced exhaustion of OT-1 CD8 T cells, flow cytometry; assay type: cell-based, mouse; details: 1 μM
Procedure: Splenic CD8+ T cells were purified from OT-1 transgenic mice, treated with 10 ng/ml of OVA peptides for 5 days, following with NR-V04 treatment at 250 nM, 500 nM or 1 μM. CD39+, granzyme B+(P<0.0001), Lag3+ or PD-1+CD8 T cells (P<0.05) were quantitated using flow cytometry.
To induce antigen specific exhaustion of CD8^+ T cells, we purified CD8^+ T cells from OT-1 mice that expresses T cell receptor targeting OVA antigen. We treated these OT-1 CD8 T cells with OVA peptide for 5 days to induce their exhaustion, following with NR-V04 treatment with various concentrations.

Sequence of NR4A1 (Homo sapiens, UniProt P22736) (P22736 whole entry, species assumed): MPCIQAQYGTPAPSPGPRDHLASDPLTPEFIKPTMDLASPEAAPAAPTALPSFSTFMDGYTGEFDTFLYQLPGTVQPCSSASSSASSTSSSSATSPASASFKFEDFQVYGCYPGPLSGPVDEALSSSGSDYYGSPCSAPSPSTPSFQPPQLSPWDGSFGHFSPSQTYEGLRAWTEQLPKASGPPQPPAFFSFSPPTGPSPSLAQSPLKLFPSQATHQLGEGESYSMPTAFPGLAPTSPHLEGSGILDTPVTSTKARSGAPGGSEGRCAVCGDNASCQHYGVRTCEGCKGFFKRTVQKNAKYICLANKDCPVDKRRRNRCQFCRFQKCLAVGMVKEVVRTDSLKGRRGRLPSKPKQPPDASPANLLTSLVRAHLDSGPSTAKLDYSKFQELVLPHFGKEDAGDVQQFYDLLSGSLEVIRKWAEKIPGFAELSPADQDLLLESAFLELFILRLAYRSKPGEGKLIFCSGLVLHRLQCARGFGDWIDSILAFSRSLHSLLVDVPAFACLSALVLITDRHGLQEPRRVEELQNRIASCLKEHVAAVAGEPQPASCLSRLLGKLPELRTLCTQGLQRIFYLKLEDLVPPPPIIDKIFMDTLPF
T1 sequence (P12813 whole entry): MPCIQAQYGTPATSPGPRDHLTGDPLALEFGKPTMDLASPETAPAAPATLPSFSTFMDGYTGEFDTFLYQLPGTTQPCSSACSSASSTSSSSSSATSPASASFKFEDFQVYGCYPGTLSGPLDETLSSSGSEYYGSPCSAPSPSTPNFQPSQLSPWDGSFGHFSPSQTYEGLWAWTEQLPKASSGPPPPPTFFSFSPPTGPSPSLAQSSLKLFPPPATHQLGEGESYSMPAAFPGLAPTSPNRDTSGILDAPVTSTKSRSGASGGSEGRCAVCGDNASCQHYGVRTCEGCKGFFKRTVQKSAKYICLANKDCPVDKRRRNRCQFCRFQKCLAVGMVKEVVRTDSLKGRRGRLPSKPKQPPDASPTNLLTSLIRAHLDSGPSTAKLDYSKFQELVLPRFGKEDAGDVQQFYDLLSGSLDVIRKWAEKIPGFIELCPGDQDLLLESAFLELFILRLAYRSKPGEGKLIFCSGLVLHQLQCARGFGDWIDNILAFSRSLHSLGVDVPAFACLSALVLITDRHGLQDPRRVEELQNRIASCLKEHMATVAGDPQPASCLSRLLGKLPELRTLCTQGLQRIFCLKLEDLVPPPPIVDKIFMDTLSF

SMILES: CC1=C(O)C(=O)C=C2C1=CC=C1[C@@]2(C)CC[C@@]2(C)[C@@H]3C[C@](C)(C(=O)NCCOCCOCCOCCOCC(=O)N[C@H](C(=O)N4C[C@H](O)C[C@H]4C(=O)N[C@@H](C)c4ccc(-c5scnc5C)cc4)C(C)(C)C)CC[C@]3(C)CC[C@]12C [NR-V04]
- NR4A1 degradation with overexpression of the corresponding E3 ligase (NR4A1 [1]): overexpression of their corresponding E3 ligases facilitated NR4A1-P-mediated degradation of NR4A1
- degradation of NR4A1 within tumors (NR4A1 [2]): efficient degradation of target protein NR4A1
- cell killing (% viability) (T47D cells): more robust killing relative to celastrol or NR-V04-NT
- toxicity to normal cells (% viability) (MCF10A): less toxic
- tumor suppressing effect (B16F10 melanoma): this effect is diminished
- T cell populations other than Tregs (human T cells from PBMC): no impact on various T cell populations
- Tregs (human T cells from PBMC): selectively elimination of Tregs
- central memory CD8+ T cells (CD44+CD62L+) (CD8+ T cells): no significant change
- effector memory population of CD8+ T cells (CD44+CD62L−) (CD8+ T cells): significant increase
- granzyme B+ active CD8 T cells (OT-1 CD8 T cells): increase
- percent of Lag3+ exhausted CD8 T cells (OT-1 CD8 T cells): significantly reduced
- percent of PD-1+ exhausted CD8 T cells (OT-1 CD8 T cells): significantly reduced

Reference: patent publication US12673106B2, “Modulators of nuclear receptor subfamily 4 group A member 1 (NR4A1) and uses thereof” (University of Florida Research Foundation, Incorporated, priority 2020, dated 2026)
